Several values for one entry are separate records, joined by “and”; a condition that tells them apart may be missing. Identical values can stand only once. Entries after “also recorded” stand apart in the source; their conditions may differ.
What was measured:
GL261 glioma [1] = experiment: intracranial GL261 glioma survival study; type: in vivo, C57BL/6 mice
Experimental: (§1) The studies were conducted in C57BL/6 mice. GL261 glioma cells (1×10^5 in 5 μl DMEM) were implanted intracranial coordinates: bregma, lateral 2.0 mm, anterior 1.2 mm, 3.0 mm depth dura. Treatment was initiated 3 days post implantation.
The median survival range and the log-rank (Mantel-Cox) statistical test results comparing the survival distributions of the samples.

GL261 = experiment: brain tumor cell line growth inhibition, GL261; type: cell-based; details: GL261, mouse glioblastoma
Experimental: (§2) These GI50s were determined using standard tumor growth inhibition assays.

survivin = experiment: additional molecular studies, survivin
[2] = body weight in GL261 glioma survival study; type: in vivo, C57BL/6 mice
Experimental: as §1
FIGS. 2A-F show the weight gain in each of the C57BL/6 mice in the different treatment groups. The average weight at endpoint for each of the treatment groups is shown below in Table 12. FIG. 3 is a graph showing the average weights over a 40-day period for each of the treatment groups.

GL261 glioma [3] = experiment: re-challenge of long term survivor mice with s.c. GL261 cells; type: in vivo, C57BL/6 mice; details: 1×10^6 s.c. GL261 cells; mice cured by Compound 76
Source text: FIG. 5 is a graph of re-challenge of Compound 76 treated long term survivor mice from FIG. 4B with 1×10^6 s.c. GL261 glioa cells. Age and litter matched controls were implanted.

SW1088 = experiment: brain tumor cell line growth inhibition, SW1088; type: cell-based; details: Homo sapiens; SW1088, astrocytoma
Experimental: as §2

[4] = tested on: various brain tumor cell lines; experiment: proliferation in various brain tumor cell lines; type: cell-based, human and mouse; details: all brain tumor cell lines evaluated
Experimental: Compound 76 is a synthetic, orally bioavailable, novel small molecule microtubule polymerization inhibitor with very high CNS penetration. The efficacy of Compound 76 as a novel anti-cancer agent is tested directly using mouse model of malignant glioma. Compound 76 is an orally administered tubulin polymerization inhibitor that binds to a novel site on heterodimeric tubulin, and to a novel conformation of the dimer. Compound 76 can inhibit Src signaling in tumors. Compound 76 has been evaluated in various brain tumor cell lines. […] When administered orally to mice at a dose of 10 mg/kg, the ratio of drug levels in the brain compared to plasma levels was 0.76, indicating excellent BBB penetration as in Example 1.
Compound 76 was evaluated in various human and mouse brain tumor cells derived from glioblastoma multiforme, astrocytoma and medulloblastoma. […] When administered to mice Compound 76 penetrated the brain by 76%, thereby successfully addressing the first major challenge in brain cancer drug discovery. Drugs which are used to treat brain tumors often penetrate only 20% or less.

GL261 glioma [5] = experiment: GL261 intracerebral tumors in SCID mice; type: in vivo, B6.CB17-Prkdc^scid/SzJ mice
Source text: (§3) FIGS. 4A-C are a series of graphs showing the survival of C57BL6 mice with intracerebral GL261 glioma implants. Mice received intracerebral implants of 1×10^5 GL261 cells by stereotactic injection at 2 mm lateral, 1 mm anterior to bregma at 3 mm depth. After 4 days mice began indicated regimen of oral Compound 76. […] Compound 76 extended median survival from 21 to 29 days (range). n=10. […] Compound 76 extended median survival >100 days (range), with up to 60% of drug treated mice experiencing complete tumor regression, n=10. Long term survivors were confirmed tumor free by high field MRI in FIG. 6. […] See high field MRI in FIG. 6
(§4) Compound 76 was also evaluated in the orthotropic GL261 glioma model in immune-competent, syngeneic C57BL/6 mice. Mice implanted intracerebrally with 1×10^5 GL261 cells treated with vehicle alone (saline) have a median survival time (MeST) of 21 days (range 18-28). Mice treated by oral Compound 76 (30 mg/kg, b.i.d.) have a MeST of 30.5 days ranging 23-32 days. In contrast, when Compound 76 is given orally at (30 mg/kg, s.i.d.) the MeST increases to over 120 days, with more than 60% of the treatment group still alive 12 months later (p<0.0001). […] Further experiments were performed using a SCID version of C57BL/6 mice (B6.CB17-Prkdc^scid/SzJ), a mouse model of B6 background, but is immune-compromised.
as §4, with “was” for “was also”

SK-N-MC = experiment: brain tumor cell line growth inhibition, SK-N-MC; type: cell-based; details: Homo sapiens, neuroepithelioma
Experimental: as §2

GL261 glioma [6] = experiment: orthotropic GL261 glioma model, immune-competent mice; type: in vivo, C57BL/6 mice
Source text: as §3, §4
as §4, with “was” for “was also”

SK-N-FI = experiment: brain tumor cell line growth inhibition, SK-N-FI; type: cell-based; details: Homo sapiens, neuroblastoma
Experimental: as §2

O=C(Cc1ccc(-c2ccc(N3CCOCC3)cc2)cn1)NCc1cccc(F)c1 [Compound 76]
Median survival (GL261 glioma [1]; 15 mg/kg bid oral): 30.5
survival Range (GL261 glioma [1]; 15 mg/kg bid oral): 25-34
Median survival (GL261 glioma [1]; 30 mg/kg bid oral): 29
survival Range (GL261 glioma [1]; 30 mg/kg bid oral): 23-32
IC50 (GL261): 8.8 nM
effect on intracellular survivin (survivin): increased expression and altered the localization of intracellular survivin
Average weight at endpoint ([2]; 15 mg/kg): 16.9 g
Average weight at endpoint ([2]; 30 mg/kg): 15.0 g
second GL261 tumor challenge in long term survivors (GL261 glioma [3]): rejected the second GL261 tumor challenge; also recorded: rejected a second GL261 tumor implant challenge
IC50 (SW1088): 22.1 nM
GI50 [4]: < 55 nM
median survival time (MeST), range (GL261 glioma [5]): 29 to 75 days
tumor reoccurrence by MRI (GL261 glioma [5]; after drug was discontinued): tumor reoccurrence; also recorded: all proceeded to develop lethal GL261 gliomas
long term survivors (GL261 glioma [5]; oral 30 mg/kg once daily): no long term survivors
median survival time (MeST) (GL261 glioma [5]; oral 30 mg/kg once daily, 30 mg/kg): 29 days and 40 days
IC50 (SK-N-MC): 0.13 nM
residual tumor by MRI (GL261 glioma [6]; 30 mg/kg s.i.d., C57BL/6 mice): no residual tumor is observed
histopathology of tumor site / residual GL261 glioma (GL261 glioma [6]; Compound 76 treated mice): large areas of necrosis and lymphocytic infiltration; also recorded: lymphocytic infiltration of the tumor site
brain edema (GL261 glioma [6]; compared with placebo or Temodar treated mice): much less brain edema
median survival time (MeST), range (GL261 glioma [6]; oral 30 mg/kg, b.i.d.): 23 to 32 days
median survival time (MeST) (GL261 glioma [6]; oral 30 mg/kg, b.i.d. (twice daily), vehicle 21 days, 30 mg/kg): 29 days and 30.5 days
treatment group still alive 12 months later (GL261 glioma [6]; oral 30 mg/kg, s.i.d.): more than 60%
growth rate of intracerebral GL261 glioma (GL261 glioma [6]; relative to control groups): very significantly slows the rate of tumor growth; also recorded: slows the growth rate
treated mice with complete tumor regression (GL261 glioma [6]; single dose per day (s.i.d.)): up to 60%
IC50 (SK-N-FI): 0.46 nM
